Experimental findings from US20130011376A1, “Methods for Enhancing Natural Killer Cell Proliferation and Activity” (GAMIDA CELL LTD., priority 2009, published 2013) are described below.

Type in all cases: cell-based, human
For assay [1], the system named is peripheral blood NK (T-cell depleted) cells. Nature of the assay: Expansion of CD3+ or CD3+/CD19+ depleted peripheral blood NK cells in culture bags. The procedure:
For depletion procedure, total nuclear cells from umbilical cord blood (CB), bone marrow (BM) or peripheral blood (PB) cells were layered on a Ficoll-Hypaque gradient (1.077 g/mL; Sigma), and centrifuged at 800×g for 30 minutes for separation of the mononuclear cells. The cells in the interface layer were collected and washed three times in phosphate-buffered saline (PBS) (Biological Industries, Israel) containing 0.5% HSA. Optionally, cells are not separated on the Ficoll-Hypaque gradient but washed three times in phosphate-buffered saline (PBS) (Biological Industries) containing 0.5% HSA (“total mononuclear fraction”). CD3 cells were depleted using the CD3 cell isolation kit (Miltenyi Biotec Bergisch, Gladbach, Germany) and the entire CD3 negative cell fraction was cultured. Optionally, CD19 cells were also depleted using the CD19 cell isolation kit (Miltenyi Biotec Bergisch, Gladbach, Germany) and the CD3/CD19 negative (CD3/CD19 depleted) cell fraction was cultured. Optionally, RosetteSep Human CD3+ Cell Depletion Cocktail (Stem Cell Technologies, RosestteSep, Cat. No. 15661)] was used for CD3 depletion and the entire CD3 negative cell fraction was cultured. After negative depletion the cells were counted and characterized by FACS analysis.
3. CD3+ depleted, or CD3+/CD19+ depleted mononuclear cell fraction from PB, BM and CB were cultured in culture bags, T-Flasks or 24 well plates at a concentration of 1−1000×10^4 cells/ml in MEMα/10% FCS or CellGro SCGM (Cell Genix)/5% Human Serum/LiforCell® FBS Replacement (Lifeblood Products) containing the following human recombinant cytokines: interleukin-2 (IL-2) or and interleukin-15 (IL-15), with or without FLT-3 or SCF or FLT3 and SCF (5-50 ng/ml) (Perpo Tech, Inc., Rocky Hill, N.J., USA), all combinations, with or without nicotinamide and incubated at 37° C. in a humidified atmosphere of 5% CO2 in air. The cultures were topped weekly or twice a week with the same volume of fresh medium containing growth factors with or without nicotinamide. Cultures were later supplemented once or several times a week with IL-2 and or IL-2 and IL-15. To estimate number of cells in culture, cell samples were counted following staining with trypan blue. At various time points, samples are taken to FACS analysis to assay the relative fractions of NK cells, CD56+CD3−, CD56+CD3+, CD34+CD56+, CD56+CD16+ and/or CD56+ NKG2A cells.
In order to calculate the number of NK cells on day 0, the total number of cells seeded on day 0 was multiplied by the percent of CD56+/CD3− cells measured by the FACS on day 0.
(§1) To determine total number of cells on day 7, 14 and 21, the cell count/ml was multiplied by the volume of the culture medium. In order to determine the number of NK cells in culture, the total number of cells in culture was multiplied by the percent of CD56+/CD3− cells measured with the FACS on days 7, 14 or 21. To measure fold expansion, total number of NK cells on days 7, 14 and 21 was divided by total number of NK cells seeded in culture on day-0.

For assay [2], the system named is peripheral blood-derived, immunobeads-purified CD56+ cells. The assay can be described thus: Assay of CD62L expression on NK cell surface, purified peripheral blood CD56+ cells. The conditions noted are these: 2.5-7.5 mM nicotinamide, 3 weeks in culture. The procedure:
Cultures were initiated with peripheral-blood-derived CD56+ cells purified with immunomagnetic beads and activated with cytokines (including IL-2 and IL-15) with or without nicotinamide (2.5, 5 and 7.5 mM). NK cells were stained with specific antibodies for the specified surface markers (e.g., CD62L) before activation in culture and after 3 weeks incubation with nicotinamide, and then monitored by FACS.

For assay [3], the system named is peripheral blood CD56+ NK cells. The assay can be described thus: Proliferation of peripheral blood CD56+ NK cells co-cultured with irradiated feeder cells. The following applies: 2.5 mM and 5 mM nicotinamide, day 21, irradiated feeder cells 10:1.
From the text: NK cell cells from total mononuclear cell fraction, purified CD56+ or CD56+CD3− cells from total nuclear or mononuclear cells or from the fraction depleted from CD34+ or CD133+ cells, or CD3+ depleted, or CD3+/CD19+ depleted mononuclear cell fraction from PB, BM and CB can be cultured with irradiated stroma. For the preparation of irradiated stroma (feeder cells), mononuclear cells were irradiated with 3000 rad. After CD56 or CD56+CD3− selection or CD3 depletion the cells were counted and characterized by FACS analysis as described hereinabove. Cells were cultured as described hereinabove, with and without nicotinamide, with and without irradiated stroma at a concentration of irradiated cells of 20×10^5 cells/ml.
as §1
Peripheral blood-derived mononuclear cell fractions were CD3 depleted and then selected for CD56+ cells by immunobead purification. […]

In assay [4] the test system is CD3+ T cells and CD3+CD56+ NKT cells. The assay can be described thus: T and NKT cell fractions in peripheral blood NK cell cultures (FACS). The following applies: increasing nicotinamide concentration (2.5 to 7.5 mM), three weeks.
Experimental: Purified CD56+ or CD56+CD3− cells from total nuclear or mononuclear cells or from the fraction depleted from CD34+ or CD133+ cells were cultured in culture bags, T-Flasks or 24 well plates at a concentration of 1-100×10^4 cells/ml in MEMα/10% FCS or CellGro SCGM (Cell Genix)/5% Human Serum/LiforCell® FBS Replacement (Lifeblood Products) containing the following human recombinant cytokines:, interleukin-2 (IL-2) (5-50 ng/ml), interleukin-15 (IL-15), FLT-3 or SCF or FLT3 and SCF or IL-2 and IL-15 or IL-2 only (Perpo Tech, Inc., Rocky Hill, N.J., USA), with or without nicotinamide, and incubated at 37° C. in a humidified atmosphere of 5% CO2 in air. The cultures were topped up once or twice a week with the same volume of fresh medium containing growth factors with or without nicotinamide. […]
The cells were washed with a PBS solution containing 1% BSA, and stained (at 4° C. for 30 min) with fluorescein isothiocyanate (FITC)- or phycoerythrin (PE)-conjugated antibodies or allophycocyanin (APC). The cells were then washed in the above buffer and analyzed using a FACScalibur® flow cytometer (Becton Dickinson, San Jose, Calif., USA). […] Emission of 10^4 cells was measured using logarithmic amplification, and analyzed using the CellQuest software (Becton Dickinson). Cells stained with FITC, PE and APC-conjugated isotype control antibodies were used to determine background fluorescence. […]

`NC(=O)c1cccnc1` [nicotinamide]: the “NK expansion relative to control cultures without nicotinamide” value in assay [1] (2.5 mM and 5 mM nicotinamide, after 14 and 21 days, IL-2 or IL-2+IL-15) is “significantly higher”. Further, the “CD56+CD3- NK cell proliferation” value in assay [1] (2.5 mM and 5 mM, 21 days, seeding 2-, 5-, and 10x10^5 cells) was “profound enhancement”. Also, the “NK (CD56+CD3-) cells among cells in culture” value in assay [1] (2-3 weeks in culture with nicotinamide, seeded 2-10% NK cells) is “more than 90%”. The “non-NK cell fraction vs control cultures” value in assay [1] (2.5 and 5 mM nicotinamide, 21 days post seeding) is “smaller”. In assay [1] (grown with nicotinamide), the “NK cell proliferation from day 14 to day 21” value is “continue to proliferate”. In addition, the “expression of CD62L following activation in culture with IL-2” value in assay [2] is reported as “remarkable increase”. Further, the “fold increase of NK cells relative to control (cytokines+irradiated mononuclear cells)” value in assay [3] is reported as “at least 4 times”. Moreover, in assay [4], the “fraction of CD3+ T cells” value is listed as “reduction” and the “fraction of CD3+CD56+ NKT cells” value is “reduction”.
